Laboratory results as given in patent US7829063B2, “Development of molecular imaging probes for carbonic anhydrase-IX using click chemistry” (Siemens Medical Solutions USA, Inc., priority 2007, dated 2010).

target: T1, CA-IX (Homo sapiens, UniProt Q16790); assay: Binding affinity (Kd) determination for CA-IX inhibitors, DNSA fluorescence competition assay, Scatchard plots; conditions: Table 3
T1 construct: His tag (C); purchased R&D Systems Inc. 2188-CA; host or cells: mouse myeloma cell line NS0
Experimental: General. […] The human red blood cells were obtained from Research Blood Components, LLC. All absorbance measurements were performed on a SPECTRA MAX M2 plate reader at 25° C. The LC/MS analyses were performed on an Agilent 1100 series LC/MSD (SL) using a 30×2.1 mm Zorbax C8 column with a Phenomenex C18 pre-column. Compound detection was accomplished by electrospray mass spectroscopy in positive selected ion mode (LC/MS-SIM). The elution solvents were acetonitrile and water, contained 0.05% TFA. Nuclear magnetic resonance (NMR) spectra were obtained on a Bruker AMX 300 MHz spectrometer or a Varian 400. 19F NMR spectra were recorded on a Bruker AMX 282.35 MHz or a Varian 400 spectrometer. The mass spectra were recorded on an Agilent 1100 series LC/MSD with electrospray mass spectroscopic detection. Flash column chromatography was performed on Merck silica gel (40-63 μm) using the solvent system indicated. The radiochemical and chemical purities were analyzed by RP-HPLC.
General Procedure of Binding Affinity (Ka) Determination for CA-IX Inhibitors
The assay was based on the observation that the only fluorescence signal detected at 460 nm upon excitation at 290 nm, an absorption […] for DNSA, was that of the DNSA.CA complex. […] The latter were developed for each test compound using mass balance for calculating the concentration of CA bound to DNSA [DNSA.CA], bound to the non-fluorescent sample [CA.Inh] and free CA [CA] in solution. The Kd values were determined from Scatchard plots using the equation below as described by Whitesides et al. [CA.Inh]/[CA]tot.[Inh]=K11^inh−K11^inh{[CA.Inh]+[CA.DNSA]}/([CA]tot)
The terms [CA.DNSA], [CA.Inh], and free CA were calculated using the mass balance based on the known values for the dissociation constant of CA.DNSA and the total concentration of CA in each reaction.

Kd [nM] | Structure (SMILES)
5 | NS(=O)(=O)c1nc2ccc(OCc3cn([C@@H](Cc4ccc(OCCF)cc4)C(=O)N4CCC(C(=O)O)CC4)nn3)cc2s1 [DHK2-120]
2 | COC(=O)[C@H](Cc1ccc(C(F)(F)F)cc1)NC(=O)[C@H](Cc1ccc(OCCF)cc1)n1cc(COc2ccc3nc(S(N)(=O)=O)sc3c2)nn1 [DHK2-127, (S)-methyl 2-((S)-3-(4-(2-fluoroethoxy)phenyl)-2-(4-((2-sulfamoylbenzo[d]thiazol-6-yloxy)methyl)-1H-1,2,3-triazol-1-yl)propanamido)-3-(4-(trifluoromethyl)phenyl)propanoate]
10 | COC(=O)C[C@H](NC(=O)[C@H](Cc1ccc(OCCF)cc1)n1cc(COc2ccc3nc(S(N)(=O)=O)sc3c2)nn1)c1ccccc1 [DHK2-128]
1.2 | COC(=O)[C@H](Cc1ccc(C(F)(F)F)cc1)NC(=O)[C@H](C(C)C)n1cc(COc2ccc3nc(S(N)(=O)=O)sc3c2)nn1 [DHK2-129]
5 | COC(=O)C[C@H](NC(=O)[C@H](C(C)C)n1cc(COc2ccc3nc(S(N)(=O)=O)sc3c2)nn1)c1ccc(C(F)(F)F)cc1 [DHK2-130]
0.5 | CC(C)[C@@H](C(=O)N[C@@H](Cc1ccc(C(F)(F)F)cc1)C(=O)O)n1cc(COc2ccc3nc(S(N)(=O)=O)sc3c2)nn1 [DHK2-132]
1.7 | CC(C)[C@@H](C(=O)N[C@@H](CC(=O)O)c1ccc(C(F)(F)F)cc1)n1cc(COc2ccc3nc(S(N)(=O)=O)sc3c2)nn1 [DHK2-133]
0.5 | NS(=O)(=O)c1nc2ccc(OCc3cn([C@@H](Cc4ccc(OCCF)cc4)C(=O)N[C@@H](Cc4ccc(C(F)(F)F)cc4)C(=O)O)nn3)cc2s1 [DHK2-134, (S)-2-((S)-3-(4-(2-fluoroethoxy)phenyl)-2-(4-((2-sulfamoylbenzo[d]thiazol-6-yloxy)methyl)-1H-1,2,3-triazol-1-yl)propanamido)-3-(4-(trifluoromethyl)phenyl)propanoic acid]
5 | NS(=O)(=O)c1nc2ccc(OCc3cn([C@@H](Cc4ccc(OCCF)cc4)C(=O)N[C@@H](CC(=O)O)c4ccccc4)nn3)cc2s1 [DHK2-135]
11 | C[N+](C)(C)C[C@H](O)CC(=O)NCCCC[C@@H](C(=O)NCc1ccc(C(F)(F)F)cc1)n1cc(COc2ccc3nc(S(N)(=O)=O)sc3c2)nn1 [DHK2-147]
25 | N[C@@H](CO)C(=O)NCCCC[C@@H](C(=O)NCc1ccc(C(F)(F)F)cc1)n1cc(COc2ccc3nc(S(N)(=O)=O)sc3c2)nn1 [DHK2-157]
10 | CC(C)[C@@H](C(=O)N[C@H](Cc1ccc(C(F)(F)F)cc1)C(=O)O)n1cc(COc2ccc3nc(S(N)(=O)=O)sc3c2)nn1 [DHK2-160-F1]
5 | CC(C)[C@@H](C(=O)N[C@H](Cc1ccc(C(F)(F)F)cc1)C(=O)O)n1cc(COc2ccc3nc(S(N)(=O)=O)sc3c2)nn1 [DHK2-160-F2]
5 | NS(=O)(=O)c1nc2ccc(OCc3cn([C@@H](Cc4ccc(OCCF)cc4)C(=O)N[C@H](Cc4ccc(C(F)(F)F)cc4)C(=O)O)nn3)cc2s1 [DHK2-161]
2 | NS(=O)(=O)c1nc2ccc(OCc3cn([C@@H](Cc4ccc(OCC(O)CF)cc4)C(=O)N[C@@H](Cc4ccc(C(F)(F)F)cc4)C(=O)O)nn3)cc2s1 (stereo partly drawn) [DHK2-173, (2S)-2-((2S)-3-(4-(3-fluoro-2-hydroxypropoxy)phenyl)-2-(4-((2-sulfamoylbenzo[d]thiazol-6-yloxy)methyl)-1H-1,2,3-triazol-1-yl)propanamido)-3-(4-(trifluoromethyl)phenyl)propanoic acid]
5 | NS(=O)(=O)c1nc2ccc(OCc3cn([C@@H](Cc4ccc(OCCF)cc4)C(=O)NCc4ccc(OC(F)(F)F)cc4)nn3)cc2s1 [DHK2-176]
14 | NS(=O)(=O)c1nc2ccc(OCc3cn([C@@H](Cc4ccc(OCCF)cc4)C(=O)N[C@@H](Cc4c[nH]c5ccccc45)C(=O)O)nn3)cc2s1 [DHK2-180]
2 | NS(=O)(=O)c1nc2ccc(OCc3cn([C@@H](Cc4ccc(OCCF)cc4)C(=O)NC(Cc4cccc(C(F)(F)F)c4)C(=O)O)nn3)cc2s1 (some centres unmarked) [DHK2-181]
17 | N#Cc1ccc(C[C@H](CC(=O)[C@H](Cc2ccc(OCCF)cc2)n2cc(COc3ccc4nc(S(N)(=O)=O)sc4c3)nn2)C(=O)O)cc1 [DHK2-187]

Kd [nM] | Structure (SMILES)
10 | COCCOCCOCCOCCC(=O)NCCOc1cccc(CSC[C@@H](NC(=O)Cn2cc(COc3ccc4nc(S(N)(=O)=O)sc4c3)nn2)C(=O)O)c1 [DHK3-48]
10 | NCCOc1cccc(COCC(NC(=O)Cn2cc(COc3ccc4nc(S(N)(=O)=O)sc4c3)nn2)C(=O)O)c1 (centres unmarked) [DHK3-149]
25 | NS(=O)(=O)c1nc2ccc(OCc3cn(CC(=O)NC(COCc4cccc(OCCNC(=O)CCC(=O)O)c4)C(=O)O)nn3)cc2s1 (centres unmarked) [DHK3-154]
11 | NCC1OC(C(=O)NCCOc2cccc(COCC(NC(=O)Cn3cc(COc4ccc5nc(S(N)(=O)=O)sc5c4)nn3)C(=O)O)c2)C(O)C(O)C1O (centres unmarked) [DHK3-155]
10 | C[N+](C)(C)C[C@H](O)CC(=O)NCCOc1cccc(COCC(NC(=O)Cn2cc(COc3ccc4nc(S(N)(=O)=O)sc4c3)nn2)C(=O)O)c1 (some centres unmarked) [DHK3-156]
14 | NS(=O)(=O)c1nc2ccc(OCc3cn(CC(=O)NC(COCc4cccc(OCCNC(=O)CN(CCO)CCO)c4)C(=O)O)nn3)cc2s1 (centres unmarked) [DHK3-158]
14.1 | NS(=O)(=O)c1nc2ccc(OCc3cn(Cc4ccc(C(=O)O)cc4)nn3)cc2s1 [DHK159]
20 | Cc1cc[n+](C)c(NC(=O)[C@H](Cc2ccccc2)n2cc(-c3ccc(S(N)(=O)=O)cc3)nn2)c1 [DHK160]
10 | NS(=O)(=O)c1nc2ccc(OCc3cn(CC(=O)N[C@@H](CSCc4ccccc4)C(=O)O)nn3)cc2s1 [DHK161]
3.3 | NS(=O)(=O)c1nc2ccc(OCc3cn(CC(=O)N[C@@H](Cc4ccc(OCCF)cc4)C(=O)O)nn3)cc2s1 [UG3150, (S)-3-(4-(2-fluoroethoxy)phenyl)-2-(2-(4-((2-sulfamoylbenzo[d]thiazol-6-yloxy)methyl)-1H-1,2,3-triazol-1-yl)acetamido)propanoic acid]
5 | NS(=O)(=O)c1nc2cc(OCc3cn(CC(=O)N[C@@H](CSCc4cccc(OCCF)c4)C(=O)O)nn3)ccc2s1 [VM2-41]
10 | COC(=O)[C@@H](CSCc1cccc(O)c1)NC(=O)[C@H](CCO)n1cc(COc2ccc3nc(S(N)(=O)=O)sc3c2)nn1 [VM2-93]
5 | COC(=O)[C@@H](CSCc1cccc(OCCF)c1)NC(=O)[C@H](CCO)n1cc(COc2ccc3nc(S(N)(=O)=O)sc3c2)nn1 [VM2-106, (S)-methyl 3-(3-(2-fluoroethoxy)benzylthio)-2-(S)-4-hydroxy-2-(4-((2-sulfamoylbenzo[d]thiazol-6-yloxy)methyl)-1H-1,2,3-triazol-1-yl)butanamido) propanoate]
10 | COC(=O)[C@H](C[S+]([O-])Cc1cccc(OCCF)c1)NC(=O)Cn1cc(COc2ccc3sc(S(N)(=O)=O)nc3c2)nn1 (stereo partly drawn) [VM2-126, ((2S)-methyl 3-(3-(2-fluoroethoxy)benzylsulfinyl)-2-(2-(4-((2-sulfamoylbenzo[d]thiazol-6-yloxy)methyl)-1H-1,2,3-triazol-1-yl)acetamido) propanoate]
10 | N[C@@H](CO)C(=O)NCCOc1cccc(COC[C@H](NC(=O)Cn2cc(COc3ccc4nc(S(N)(=O)=O)sc4c3)nn2)C(=O)O)c1 [VM3-163, (S)-3-(3-(2-((S)-2-amino-3-hydroxypropanamido)ethoxy)benzyloxy)-2-(2-(4-((2-sulfamoylbenzo[d]thiazol-6-yloxy)methyl)-1H-1,2,3-triazol-1-yl)acetamido)propanoic acid]
5 | NS(=O)(=O)c1nc2ccc(OCc3cn(CC(=O)N[C@@H](Cc4ccc(OCCO)cc4)C(=O)O)nn3)cc2s1 [VM4009, (S)-3-(4-(2-hydroxyethoxy)phenyl)-2-(2-(4-((2-sulfamoylbenzo[d]thiazol-6-yloxy)methyl)-1H-1,2,3-triazol-1-yl)acetamido)propanoic acid]
3.3 | CC(C)[C@@H](C(=O)N[C@@H](Cc1ccc(OCCO)cc1)C(=O)O)n1cc(COc2ccc3nc(S(N)(=O)=O)sc3c2)nn1 [VM4021, (S)-3-(4-(2-hydroxyethoxy)phenyl)-2-((S)-3-methyl-2-(4-((2-sulfamoylbenzo[d]thiazol-6-yloxy)methyl)-1H-1,2,3-triazol-1-yl)butanamido)propanoic acid]
1.3 | CC(C)[C@@H](C(=O)N[C@@H](Cc1ccc(OCCF)cc1)C(=O)O)n1cc(COc2ccc3nc(S(N)(=O)=O)sc3c2)nn1 [VM4037a, (S)-3-(4-(2-fluoroethoxy)phenyl)-2-((S)-3-methyl-2-(4-((2-sulfamoylbenzo[d]thiazol-6-yloxy)methyl)-1H-1,2,3-triazol-1-yl)butanamido) propanoic acid]
5 | CC(C)[C@H](C(=O)N[C@@H](Cc1ccc(OCCF)cc1)C(=O)O)n1cc(COc2ccc3nc(S(N)(=O)=O)sc3c2)nn1 [VM4037b]
